The values that follow come from patent publication US20100261690A1, “NOVEL COMBINATIONS” (ASTRAZENECA R&D, priority 2009, published 2010).

SMILES strings stand for the structures.

The assay deals with LPS-induced TNFα production in human peripheral blood mononuclear cells (PBMCs). Nature of the assay: Inhibition of LPS-induced TNFα production in human peripheral blood mononuclear cells (AlphaLISA). The settings on record: PBMC. In kind it is cell-based. Here is the method:
Inhibition of Lipopolysaccharride (LPS)-Induced TNFα Production in Human Peripheral Blood Mononuclear Cells
Human isolated peripheral blood mononuclear cells (PBMCs) were pre-incubated with a range of concentrations of the GR agonist (1R,3aS,3bS,10aR,10bS,11S,12aS)-1-{[(cyanomethyl)sulfanyl]carbonyl}-7-(4-fluorophenyl)-11-hydroxy-10a,12a-dimethyl-1,2,3,3a,3b,4,5,7,10,10a,10b,11,12,12a-tetradecahydrocyclopenta[5,6]naphtho[1,2-f]indazol-1-yl furan-2-carboxylate (Compound A), alone or in the presence of a range of concentrations of a second compound with a distinct pharmacological activity for 45 minutes at 37° C. After the pre-incubation period, the cells were then incubated with LPS (5 ng/mL) for 18 hr at 37° C. to induce TNFα production. The total assay volume was 200 μL. At the end of the incubation period, 10 μL of the culture supernatant diluted 1:5 was analysed to quantify the TNFα released using AlphaLISA (PerkinElmer). The fluorescence was detected on an EnVision Alphareader. Inhibition curves were fitted using a 4-parameter logistic equation in a non-linear curve fitting routine and activity was expressed as pIC50.
In each table, the data represents the mean of two separate experiments using PBMC from healthy blood donors (n=2).
On the technique in general: Alpha assays give light when donor and acceptor beads are brought close together.

Turning to `C[C@]12Cc3cnn(-c4ccc(F)cc4)c3C=C1CC[C@@H]1[C@@H]2[C@@H](O)C[C@@]2(C)[C@H]1CC[C@]2(OC(=O)c1ccco1)C(=O)SCC#N` [Compound A, (1R,3aS,3bS,10aR,10bS,11S,12aS)-1-{[(cyanomethyl)sulfanyl]carbonyl}-7-(4-fluorophenyl)-11-hydroxy-10a,12a-dimethyl-1,2,3,3a,3b,4,5,7,10,10a,10b,11,12,12a-tetradecahydrocyclopenta[5,6]naphtho[1,2-f]indazol-1-yl furan-2-carboxylate], under “read-out: pIC50 for inhibition of LPS-induced TNFα production from human PBMC (converted)”, the IC50 is 708 pM. One may read the inhibition as how much of the control response was suppressed. Consider `CNCCOc1ccccc1C1(Nc2nccn(-c3cc(C(=O)NC4CC4)cc(F)c3C)c2=O)CC1` [Compound E, N-cyclopropyl-3-fluoro-4-methyl-5-{3-[(1-{2-[2-(methylamino)ethoxy]phenyl}cyclopropyl)amino]-2-oxopyrazin-1(2H)-yl}benzamide], for which the inhibition at 1 µM (Compound A 1000 nM in combination with the listed second compound at 1 μM, mean n=2, read-out: % inhibition @ 1000 nM (maximal inhibition)) amounted to 99.4%.
